Source: patent US20250326744A1, “PIPERAZINE DERIVATIVE OR SALT THEREOF, AND PHARMACEUTICAL COMPOSITION” (priority 2022, published 2025)
Counter-ions that a name gives are not always drawn.

Tests used:
[1] = system: mexB (PA) strain; assay: Combinational effect with antibacterial agent against Pseudomonas aeruginosa (Test Examples 2 and 4): mexB (PA) strain with LVFX, TC or AZT at 1/4 MIC, EC99; assay type: cell-based; conditions: mexB (PA) strain, Test Example 4; for EC99, combinational effect with AZT, mexB (PA): combined with AZT at 1/4 MIC; for EC99, combinational effect with LVFX, mexB (PA): combined with LVFX at 1/4 MIC; for EC99, combinational effect with TC, mexB (PA): combined with TC at 1/4 MIC
Method in brief: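 P. aeruginosa mexB (PA) strain, lacking MexCD-OprJ, MexEF-OprN and MexXY and overexpressing MexAB-OprM, grown 16–20 h in CAMHB (10^4–5 CFU/well) with LVFX, TC or AZT at ¼ MIC plus test compound at 0–800 μM. Growth read as OD595; EC99 is the lowest compound concentration giving ≥99% growth inhibition.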

[2] = system: S-3769 strain; assay: Combinational effect with antibacterial agent against Pseudomonas aeruginosa (Test Examples 2 and 4): S-3769 strain with AMK or GM at 1/4 MIC, EC99; assay type: cell-based; conditions: S-3769 strain, Test Example 4; for EC99, combinational effect with AMK, S-3769 strain: combined with AMK at 1/4 MIC; for EC99, combinational effect with GM, S-3769 strain: combined with GM at 1/4 MIC
Method in brief: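 P. aeruginosa S-3769 (clinical isolate, MexY overexpressed) grown 16–20 h in CAMHB, 10^4 to 5 CFU/well, with AMK or GM at ¼ MIC plus test compound 0–800 μM. Growth read as OD595; EC99 is the lowest compound concentration giving ≥99% growth inhibition.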

SMILES | EC99, combinational effect with AZT, mexB (PA) [1] | EC99, combinational effect with LVFX, mexB (PA) [1] | EC99, combinational effect with TC, mexB (PA) [1] | EC99, combinational effect with AMK, S-3769 strain [2] | EC99, combinational effect with GM, S-3769 strain [2]
CCOc1cccc(F)c1CN1CCN(C(=O)[C@H](N)C2CCN(CCc3cc(Cl)ccc3-c3c(O)cccc3F)CC2)CC1 [Example 578, Hydrochloride of (2R)-2-amino-2-(1-(2-(4-chloro-2′-fluoro-6′-hydroxy-[1,1-biphenyl]-2-yl)ethyl)piperidin-4-yl)-1-(4-(2-ethoxy-6-fluorobenzyl)piperazin-1-yl) ethan-1-one] | B (25 μM<EC99≤100 μM) | A (12.5 μM<EC99≤25 μM) | B (25 μM<EC99≤100 μM) | B (25 μM<EC99≤100 μM) | B (25 μM<EC99≤100 μM)
CCOc1cccc(F)c1CN1CCN(C(=O)[C@H](N)C2CCN(CCc3cc(Cl)ccc3-c3cc(Cl)ccc3O)CC2)CC1 [Example 580, Hydrochloride of (R)-2-amino-2-(1-(2-(4,5′-dichloro-2′-hydroxy-[1,1-biphenyl]-2-yl)ethyl)piperidin-4-yl)-1-(4-(2-ethoxy-6-fluorobenzyl)piperazin-1-yl)ethan-1-one] | A (12.5 μM<EC99≤25 μM) | S (EC99≤12.5 μM) | A (12.5 μM<EC99≤25 μM) | S (EC99≤12.5 μM) | A (12.5 μM<EC99≤25 μM)
CCOc1cccc(F)c1CN1CCN(C(=O)[C@H](N)C2CCN(CCc3cc(Cl)ccc3-c3cccc(F)c3O)CC2)CC1 [Example 581, Hydrochloride of (R)-2-amino-2-(1-(2-(4-chloro-3′-fluoro-2′-hydroxy-[1,1-biphenyl]-2-yl)ethyl)piperidin-4-yl)-1-(4-(2-ethoxy-6-fluorobenzyl)piperazin-1-yl)ethan-1-one] | B (25 μM<EC99≤100 μM) | A (12.5 μM<EC99≤25 μM) | B (25 μM<EC99≤100 μM) | A (12.5 μM<EC99≤25 μM) | A (12.5 μM<EC99≤25 μM)
CCOc1cccc(F)c1CN1CCN(C(=O)[C@H](N)C2CCN(CCc3cc(Cl)ccc3-c3cc(O)cc(F)c3)CC2)CC1 [Example 583, Hydrochloride of (R)-2-amino-2-(1-(2-(4-chloro-3′-fluoro-5′-hydroxy-[1,1-biphenyl]-2-yl)ethyl)piperidin-4-yl)-1-(4-(2-ethoxy-6-fluorobenzyl)piperazin-1-yl)ethan-1-one] | A (12.5 μM<EC99≤25 μM) | S (EC99≤12.5 μM) | A (12.5 μM<EC99≤25 μM) | S (EC99≤12.5 μM) | S (EC99≤12.5 μM)
CCOc1cccc(F)c1CN1CCN(C(=O)[C@H](N)C2CCN(CCc3cc(Cl)ccc3-c3cc(O)cc(Cl)c3)CC2)CC1 [Example 584, (R)-2-amino-2-(1-(2-(3′,4-dichloro-5′-hydroxy-[1,1′-biphenyl]-2-yl)ethyl)piperidin-4-yl)-1-(4-(2-ethoxy-6-fluorobenzyl)piperazin-1-yl)ethan-1-one] | S (EC99≤12.5 μM) | S (EC99≤12.5 μM) | S (EC99≤12.5 μM) | S (EC99≤12.5 μM) | S (EC99≤12.5 μM)
CCOc1cccc(F)c1CN1CCN(C(=O)[C@H](N)C2CCN(CCc3cc(Cl)ccc3-c3cc(O)ccc3F)CC2)CC1 [Example 585, (R)-2-amino-2-(1-(2-(4-chloro-2′-fluoro-5′-hydroxy-[1,1′-biphenyl]-2-yl)ethyl)piperidin-4-yl)-1-(4-(2-ethoxy-6-fluorobenzyl)piperazin-1-yl)ethan-1-one] | S (EC99≤12.5 μM) | S (EC99≤12.5 μM) | S (EC99≤12.5 μM) | S (EC99≤12.5 μM) | S (EC99≤12.5 μM)
CCOc1cccc(F)c1CN1CCN(C(=O)[C@H](N)C2CCN(CCc3cc(Cl)ccc3-c3cc(O)ccc3Cl)CC2)CC1 [Example 586, Hydrochloride of (R)-2-amino-2-(1-(2-(2′,4-dichloro-5′-hydroxy-[1,1-biphenyl]-2-yl)ethyl)piperidin-4-yl)-1-(4-(2-ethoxy-6-fluorobenzyl)piperazin-1-yl)ethan-1-one] | S (EC99≤12.5 μM) | S (EC99≤12.5 μM) | S (EC99≤12.5 μM) | A (12.5 μM<EC99≤25 μM) | S (EC99≤12.5 μM)
CSc1ccc(O)cc1CN1CCN(C(=O)[C@H](N)C2CCN(CCc3cc(Cl)ccc3-c3ccccc3)CC2)CC1 [Example 587, Hydrochloride of (R)-2-amino-2-(1-(2-(4-chloro-[1,1-biphenyl]-2-yl)ethyl)piperidin-4-yl)-1-(4-(5-hydroxy-2-(methylthio)benzyl)piperazin-1-yl) ethan-1-one] | S (EC99≤12.5 μM) | S (EC99≤12.5 μM) | S (EC99≤12.5 μM) | A (12.5 μM<EC99≤25 μM) | A (12.5 μM<EC99≤25 μM)
N[C@@H](C(=O)N1CCN(Cc2c(O)cccc2C(F)(F)F)CC1)C1CCN(CCc2cc(Cl)ccc2-c2ccccc2)CC1 [Example 588, Hydrochloride of (R)-2-amino-2-(1-(2-(4-chloro-[1,1-biphenyl]-2-yl)ethyl)piperidin-4-yl)-1-(4-(2-hydroxy-6-(trifluoromethyl)benzyl)piperazin-1-yl) ethan-1-one] | B (25 μM<EC99≤100 μM) | A (12.5 μM<EC99≤25 μM) | A (12.5 μM<EC99≤25 μM) | A (12.5 μM<EC99≤25 μM) | A (12.5 μM<EC99≤25 μM)
CCSc1ccc(O)cc1CN1CCN(C(=O)[C@H](N)C2CCN(CCc3cc(Cl)ccc3-c3ccccc3)CC2)CC1 [Example 589, (R)-2-amino-2-(1-(2-(4-chloro-[1,1′-biphenyl]-2-yl)ethyl)piperidin-4-yl)-1-(4-(2-(ethylthio)-5-hydroxybenzyl)piperazin-1-yl)ethan-1-one] | S (EC99≤12.5 μM) | S (EC99≤12.5 μM) | S (EC99≤12.5 μM) | S (EC99≤12.5 μM) | S (EC99≤12.5 μM)
CSc1cccc(O)c1CN1CCN(C(=O)[C@H](N)C2CCN(CCc3cc(Cl)ccc3-c3ccccc3)CC2)CC1 [Example 590, Hydrochloride of (R)-2-amino-2-(1-(2-(4-chloro-[1,1-biphenyl]-2-yl)ethyl)piperidin-4-yl)-1-(4-(2-hydroxy-6-(methylthio)benzyl)piperazin-1-yl) ethan-1-one] | S (EC99≤12.5 μM) | S (EC99≤12.5 μM) | S (EC99≤12.5 μM) | A (12.5 μM<EC99≤25 μM) | A (12.5 μM<EC99≤25 μM)
CCSc1cccc(O)c1CN1CCN(C(=O)[C@H](N)C2CCN(CCc3cc(Cl)ccc3-c3ccccc3)CC2)CC1 [Example 591, Hydrochloride of (R)-2-amino-2-(1-(2-(4-chloro-[1,1-biphenyl]-2-yl)ethyl)piperidin-4-yl)-1-(4-(2-(ethylthio)-6-hydroxybenzyl)piperazin-1-yl)ethan-1-one] | S (EC99≤12.5 μM) | S (EC99≤12.5 μM) | S (EC99≤12.5 μM) | B (25 μM<EC99≤100 μM) | B (25 μM<EC99≤100 μM)
CSc1ccccc1CN1CCN(C(=O)[C@H](N)C2CCN(CCc3cc(Cl)ccc3-c3ccccc3O)CC2)CC1 [Example 592, Hydrochloride of (R)-2-amino-2-(1-(2-(4-chloro-2′-hydroxy-[1,1-biphenyl]-2-yl)ethyl)piperidin-4-yl)-1-(4-(2-(methylthio)benzyl)piperazin-1-yl)ethan-1-one] | S (EC99≤12.5 μM) | S (EC99≤12.5 μM) | S (EC99≤12.5 μM) | A (12.5 μM<EC99≤25 μM) | B (25 μM<EC99≤100 μM)
CCSc1cc(F)ccc1CN1CCN(C(=O)[C@H](N)C2CCN(CCc3cc(Cl)ccc3-c3cccc(O)c3)CC2)CC1 [Example 593, Hydrochloride of (R)-2-amino-2-(1-(2-(4-chloro-3′-hydroxy-[1,1-biphenyl]-2-yl)ethyl)piperidin-4-yl)-1-(4-(2-(ethylthio)-4-fluorobenzyl)piperazin-1-yl) ethan-1-one] | B (25 μM<EC99≤100 μM) | A (12.5 μM<EC99≤25 μM) | A (12.5 μM<EC99≤25 μM) | S (EC99≤12.5 μM) | B (25 μM<EC99≤100 μM)
